SMILES strings stand for the structures.

From patent US20260374750A1, “LIGANDS SPECIFICALLY TARGETING VESICULAR GLUTAMATE TRANSPORTERS FOR SUPER-RESOLUTION IMAGING” (SORBONNE UNIVERSITÉ, priority 2021, published 2026) come the findings set out here.

Data set [1] has as its system isolated rat cortex synaptic vesicles. As to the kind of experiment: Confocal and STED observation of isolated synaptic vesicles incubated with fluorescent ligand. As to conditions: control wells. On the procedure:
In view of the preliminary results which are obtained, isolated synaptic vesicles are a model of choice in determining the distribution of the transporters VAChT and VGLUT3 at the vesicular level. The major pitfall in the use of this model is the absence of a protocol of use and results regarding their compatibility with super-resolution microscopy. First, the observability of fluorescent labeling in the vesicles was tested, as well as the effect of STED super-resolution microscopy on this model.
The different manipulations were carried out on rat or mouse synaptic vesicles, coming from the striatum or the cortex.
Material and methods: In a manner similar to vesicular reuptake tests, the fluorescent compounds to be studied are diluted in sucrose buffer (TPS 0.32 M) so as to obtain 10 μM of compound in the final observation medium. […]
Isolated rat cortex synaptic vesicles are then incubated in the presence of ATP and the fluorescent ligand G02 at 37 °C then are observed by confocal microscopy as well as super-resolution microscopy (STED). In order to ensure that the observed labeling corresponds to the fluorescent ligands accumulated on the surface or inside the vesicles, control wells were analyzed. No fluorescent signal is detected in wells containing only isolated vesicles (without fluorescent ligand), or only the fluorescent compound (without vesicles).

In data set [2] the test system is glutamatergic synaptic vesicles (VGLUT1). As to the kind of experiment: Double labeling of isolated glutamatergic synaptic vesicles (VGLUT1 immunolabeling and fluorescent ligand). The settings on record: FIG. 7; confocal and STED. On the procedure:
Tests were performed in order to check the compatibility of the novel fluorescent ligands of the invention and a labeling by immunohistochemistry. Indeed, ultimately, combining a labeling of VAChT by immunohistochemistry and of VGLUT3 by a fluorescent ligand would allow obtaining more information on the distribution of these vesicular transporters in the striatum.
FIG. 7 illustrates the glutamatergic vesicular labeling by immunohistochemistry and the fluorescent ligand referenced G02 according to the invention. In particular, isolated glutamatergic synaptic vesicles were double labeled by immunolabeling of VGLUT1 (in red) and the fluorescent ligand G02 (in green). The observations were carried out using confocal microscopy and STED. […] In order to more accurately analyze the spot colocalization, it seems more appropriate to use lower and therefore more separated concentrations of vesicles.

Consider `Nc1ccc(-c2ccc(C#Cc3cc4cc(C(=O)O)c(=O)oc4cc3O)cc2)cc1` [LSP17-1173, 6-((4′-amino-[1,1′-biphenyl]-4-yl)ethynyl)-7-hydroxy-2-oxo-2H-chromene-3-carboxylic Acid], for which, in data set [1], the “precipitation in observation medium” value was “does not precipitate in the observation medium”. For the same compound, the “double labeling spots (compatibility with immunohistochemistry)” value in data set [2] is “The obtained spots are clear and resolved”.
